In patent publication US8299065B2, “Antibacterial condensed thiazoles” (Biota Europe Ltd., priority 2007, dated 2012) one finds MIC data, which are given here for 40 molecules.

In brackets after ≈: the same amount, converted by molar mass.

This test relates to Enterococcus faecalis ATCC 29212. In words: MIC testing against Enterococcus faecalis ATCC 29212. As to conditions: ATCC29212, read-out: MICs against Enterococcus faecalis, Activity. In kind it is cell-based. On the procedure: Minimum Inhibitory Concentration (MIC) Testing Compounds of this invention were tested for antimicrobial activity by susceptibility testing in liquid or on solid media. MICs for compounds against each strain were determined by the broth microdilution or agar dilution method according to the guidelines of the Clinical Laboratories and Standards Institute, formerly the National Committee for Clinical Laboratory Standards (Clinical Laboratories and Standards Institute. Methods for Dilution Antimicrobial Susceptibility Tests for Bacteria That Grow Aerobically; Approved Standard—Seventh Edition. Document M7-A7. CLSI, Wayne, Pa., 2006; Clinical Laboratories and Standards Institute. Methods for Antimicrobial Susceptibility Testing of Anaerobic Bacteria; Approved Standard—Sixth Edition. Document M11-A6. CLSI, Wayne, Pa., 2004).
As for `CCNC(=O)Nc1nc2cc(-c3cccnc3)ccc2s1` [Example 1, 1-Ethyl-3-(5-pyridin-3-yl-benzothiazol-2-yl)-urea], the MIC was in the range of 0.25 to 1 µg/mL (≈ 0.838 to 3.35 µM). With `CCNC(=O)Nc1nc2cc(-c3ccc(CC(=O)NC)nc3)ccc2s1` [Example 2, 2-{5-[2-(3-Ethyl-ureido)-benzothiazol-5-yl]-pyridin-2-yl}-N-methyl-acetamide], the MIC lay in the range of 2 to 16 µg/mL (≈ 5.41 to 43.3 µM). The value for `CCNC(=O)Nc1nc2cc(-c3ccc4nncn4c3)ccc2s1` [Example 5, 1-(5-([1,2,4]triazolo[4,3-a]pyridin-6-yl)benzo[d]thiazol-2-yl)-3-ethylurea] was 2 to 16 µg/mL (≈ 5.91 to 47.3 µM); that for `CCNC(=O)Nc1nc2cc(-c3ccc4nccn4c3)ccc2s1` [Example 6, 1-ethyl-3-(5-(imidazo[1,2-a]pyridin-6-yl)benzo[d]thiazol-2-yl)urea] was 2 to 16 µg/mL (≈ 5.93 to 47.4 µM); that for `CCNC(=O)Nc1nc2cc(-c3ccc4nnnn4c3)ccc2s1` [Example 7, 1-ethyl-3-(5-(tetrazolo[1,5-a]pyridin-6-yl)benzo[d]thiazol-2-yl)urea] was 2 to 16 µg/mL (≈ 5.89 to 47.1 µM).

Take `CCNC(=O)Nc1nc2cc(-c3cnc4c(c3)OCCN4)ccc2s1` [Example 8, 1-(5-(3,4-dihydro-2H-pyrido[3,2-b][1,4]oxazin-7-yl)benzo[d]thiazol-2-yl)-3-ethylurea]: the MIC lay within 2 to 16 µg/mL (≈ 5.63 to 45 µM).

`CCNC(=O)Nc1nc2cc(-c3ccc(CO)nc3)ccc2s1` [Example 9, 1-ethyl-3-(5-(6-(hydroxymethyl)pyridin-3-yl)benzo[d]thiazol-2-yl)urea]: the MIC lay in the range of 2 to 16 µg/mL (≈ 6.09 to 48.7 µM). As to `CCNC(=O)Nc1nc2cc(-c3cnc(-n4ccccc4=O)cn3)ccc2s1` [Example 10, 1-ethyl-3-(5-(5-(2-oxopyridin-1(2H)-yl)pyrazin-2-yl)benzo[d]thiazol-2-yl)urea], the MIC lay in the range of 2 to 16 µg/mL (≈ 5.1 to 40.8 µM).

On to `CCNC(=O)Nc1nc2cc(-c3cnc(CO)n3C)ccc2s1` [Example 11, 1-ethyl-3-(5-(2-(hydroxymethyl)-1-methyl-1H-imidazol-5-yl)benzo[d]thiazol-2-yl)urea], for which the MIC lay within 2 to 16 µg/mL (≈ 6.03 to 48.3 µM). For `CCNC(=O)Nc1nc2cc(-c3ccc(=O)n(CC(=O)OCC)c3)ccc2s1` [Example 12, ethyl 2-(5-(2-(3-ethylureido)benzo[d]thiazol-5-yl)-2-oxopyridin-1(2H)-yl)acetate] the value was 2 to 16 µg/mL (≈ 4.99 to 40 µM); for `CCNC(=O)Nc1nc2cc(-c3ccc(=O)n(CCOCC)c3)ccc2s1` [Example 13, 1-(5-(1-(2-ethoxyethyl)-6-oxo-1,6-dihydropyridin-3-yl)benzo[d]thiazol-2-yl)-3-ethylurea], 2 to 16 µg/mL (≈ 5.17 to 41.4 µM). The value for `CCNC(=O)Nc1nc2cc(-c3cc(C)oc(=O)c3)ccc2s1` [Example 14, 1-ethyl-3-(5-(6-methyl-2-oxo-2H-pyran-4-yl)benzo[d]thiazol-2-yl)urea] was 2 to 16 µg/mL (≈ 6.07 to 48.6 µM); that for `CCNC(=O)Nc1nc2cc(-c3ccc(C(=O)OC)nc3)ccc2s1` [Example 15, methyl 5-(2-(3-ethylureido)benzo[d]thiazol-5-yl)picolinate] was 2 to 16 µg/mL (≈ 5.61 to 44.9 µM); that for `CCNC(=O)Nc1nc2cc(-c3cnn(CCN4CCOCC4)c3)ccc2s1` [Example 16, 1-ethyl-3-(5-(1-(2-morpholinoethyl)-1H-pyrazol-4-yl)benzo[d]thiazol-2-yl)urea] was 2 to 16 µg/mL (≈ 4.99 to 39.9 µM). For `CCNC(=O)Nc1nc2cc(-c3cc[nH]n3)ccc2s1` [Example 17, 1-(5-(1H-pyrazol-3-yl)benzo[d]thiazol-2-yl)-3-ethylurea] the value was 2 to 16 µg/mL (≈ 6.96 to 55.7 µM); for `CCNC(=O)Nc1nc2cc(-c3cnn(C)c3)ccc2s1` [Example 18, 1-ethyl-3-(5-(1-methyl-1H-pyrazol-4-yl)benzo[d]thiazol-2-yl)urea], 2 to 16 µg/mL (≈ 6.64 to 53.1 µM). As for `CCNC(=O)Nc1nc2cc(-c3cnc4c(c3)OCCN4C)ccc2s1` [Example 19, 1-ethyl-3-(5-(4-methyl-3,4-dihydro-2H-pyrido[3,2-b][1,4]oxazin-7-yl)benzo[d]thiazol-2-yl)urea], the MIC lay in the range of 0.25 to 1 µg/mL (≈ 0.677 to 2.71 µM).

For the molecule `CCNC(=O)Nc1nc2cc(-c3cncc4ccccc34)ccc2s1` [Example 20, 1-ethyl-3-(5-(isoquinolin-4-yl)benzo[d]thiazol-2-yl)urea], the MIC lay within 0.25 to 1 µg/mL (≈ 0.718 to 2.87 µM). For `CCNC(=O)Nc1nc2cc(-c3cn[nH]c3)ccc2s1` [Example 21, 1-(5-(1H-pyrazol-4-yl)benzo[d]thiazol-2-yl)-3-ethylurea] the value was 2 to 16 µg/mL (≈ 6.96 to 55.7 µM). The value for `CCNC(=O)Nc1nc2cc(-c3cnc(OC)s3)ccc2s1` [Example 22, 1-ethyl-3-(5-(2-methoxythiazol-5-yl)benzo[d]thiazol-2-yl)urea] was 2 to 16 µg/mL (≈ 5.98 to 47.8 µM). `CCNC(=O)Nc1nc2cc(-c3cnc(O)s3)ccc2s1` [Example 23, 1-ethyl-3-(5-(2-hydroxythiazol-5-yl)benzo[d]thiazol-2-yl)urea]: the MIC lay in the range of 2 to 16 µg/mL (≈ 6.24 to 49.9 µM). For `CCNC(=O)Nc1nc2cc(-c3cnc4ccccn34)ccc2s1` [Example 24, 1-ethyl-3-(5-(imidazo[1,2-a]pyridin-3-yl)benzo[d]thiazol-2-yl)urea] the value was 2 to 16 µg/mL (≈ 5.93 to 47.4 µM). The value for `CCNC(=O)Nc1nc2cc(-c3ccc4ncnn4c3)ccc2s1` [Example 25, 1-(5-([1,2,4]triazolo[1,5-a]pyridin-6-yl)benzo[d]thiazol-2-yl)-3-ethylurea] was 0.25 to 1 µg/mL (≈ 0.739 to 2.96 µM); that for `CCNC(=O)Nc1nc2cc(-c3ccc(NC(C)=O)nc3)ccc2s1` [Example 26, N-(5-(2-(3-ethylureido)benzo[d]thiazol-5-yl)pyridin-2-yl)acetamide] was 2 to 16 µg/mL (≈ 5.63 to 45 µM).

Turning to `CCNC(=O)Nc1nc2cc(-c3ccc(N4CCOCC4)nc3)ccc2s1` [Example 27, 1-ethyl-3-(5-(6-morpholinopyridin-3-yl)benzo[d]thiazol-2-yl)urea], the MIC was in the range of 2 to 16 µg/mL (≈ 5.22 to 41.7 µM).

As to `CCNC(=O)Nc1nc2cc(-c3cnc(-n4ccnc4)nc3)ccc2s1` [Example 28, 1-(5-(2-(1H-imidazol-1-yl)pyrimidin-5-yl)benzo[d]thiazol-2-yl)-3-ethylurea], the MIC fell in the range of 2 to 16 µg/mL (≈ 5.47 to 43.8 µM). The value for `CCNC(=O)Nc1nc2cc(-c3cc[nH]c(=O)c3)ccc2s1` [Example 29, 1-ethyl-3-(5-(2-oxo-1,2-dihydropyridin-4-yl)benzo[d]thiazol-2-yl)urea] was 2 to 16 µg/mL (≈ 6.36 to 50.9 µM).

For the molecule `CCNC(=O)Nc1nc2cc(-c3ccc(-c4nnn(C)n4)nc3)ccc2s1` [Example 30, 1-ethyl-3-(5-(6-(2-methyl-2H-tetrazol-5-yl)pyridin-3-yl)benzo[d]thiazol-2-yl)urea], the MIC is 0.25 to 1 µg/mL (≈ 0.657 to 2.63 µM). For `CCNC(=O)Nc1nc2cc(-c3cc(C)n(CCOC)c(=O)c3)ccc2s1` [Example 31, 1-ethyl-3-(5-(1-(2-methoxyethyl)-6-methyl-2-oxo-1,2-dihydropyridin-4-yl)benzo[d]thiazol-2-yl)urea] the value was 0.25 to 1 µg/mL (≈ 0.647 to 2.59 µM); for `CCNC(=O)Nc1nc2cc(-c3cc(C)n(CCO)c(=O)c3)ccc2s1` [Example 32, 1-ethyl-3-(5-(1-(2-hydroxyethyl)-6-methyl-2-oxo-1,2-dihydropyridin-4-yl)benzo[d]thiazol-2-yl)urea], 2 to 16 µg/mL (≈ 5.37 to 43 µM); for `CCNC(=O)Nc1nc2cc(-c3cc(C)n(Cc4cccc(C)n4)c(=O)c3)ccc2s1` [Example 33, 1-ethyl-3-(5-(6-methyl-1-((6-methylpyridin-2-yl)methyl)-2-oxo-1,2-dihydropyridin-4-yl)benzo[d]thiazol-2-yl)urea], 0.25 to 1 µg/mL (≈ 0.577 to 2.31 µM). The value for `CCNC(=O)Nc1nc2cc(-c3cc(C)n(Cc4cccnc4)c(=O)c3)ccc2s1` [Example 34, 1-ethyl-3-(5-(6-methyl-2-oxo-1-(pyridin-3-ylmethyl)-1,2-dihydropyridin-4-yl)benzo[d]thiazol-2-yl)urea] was 0.25 to 1 µg/mL (≈ 0.596 to 2.38 µM); that for `CCNC(=O)Nc1nc2cc(-c3cc(C)n(Cc4ccccn4)c(=O)c3)ccc2s1` [Example 35, 1-ethyl-3-(5-(6-methyl-2-oxo-1-(pyridin-2-ylmethyl)-1,2-dihydropyridin-4-yl)benzo[d]thiazol-2-yl)urea] was 0.25 to 1 µg/mL (≈ 0.596 to 2.38 µM). On to `CCNC(=O)Nc1nc2cc(-c3cc(C)n(C(C)c4ccccn4)c(=O)c3)ccc2s1` (stereo not shown) [Example 36, 1-ethyl-3-(5-(6-methyl-2-oxo-1-(1-(pyridin-2-yl)ethyl)-1,2-dihydropyridin-4-yl)benzo[d]thiazol-2-yl)urea], for which the MIC was 2 to 16 µg/mL (≈ 4.61 to 36.9 µM).

As to `CCNC(=O)Nc1nc2cc(-c3ccc4c(=O)c(C(=O)OCC)cn(C)c4c3)ccc2s1` [Example 37, ethyl 7-(2-(3-ethylureido)benzo[d]thiazol-5-yl)-1-methyl-4-oxo-1,4-dihydroquinoline-3-carboxylate], the MIC was in the range of 2 to 16 µg/mL (≈ 4.44 to 35.5 µM). In the case of `CCNC(=O)Nc1nc2cc(-c3ccc(NC(C)=O)nc3)c(F)cc2s1` [Example 38, N-(5-(2-(3-ethylureido)-6-fluorobenzo[d]thiazol-5-yl)pyridin-2-yl)acetamide], the MIC was in the range of 0.25 to 1 µg/mL (≈ 0.669 to 2.68 µM). The value for `CCNC(=O)Nc1nc2cc(-c3cnn(CC(=O)OCC)c3)c(F)cc2s1` [Example 39, ethyl 2-(4-(2-(3-ethylureido)-6-fluorobenzo[d]thiazol-5-yl)-1H-pyrazol-1-yl)acetate] was 2 to 16 µg/mL (≈ 5.11 to 40.9 µM). For `CCNC(=O)Nc1nc2cc(-c3cc(C)oc(=O)c3)c(F)cc2s1` [Example 40, 1-ethyl-3-(6-fluoro-5-(6-methyl-2-oxo-2H-pyran-4-yl)benzo[d]thiazol-2-yl)urea], the MIC is 0.25 to 1 µg/mL (≈ 0.72 to 2.88 µM). The value for `CCNC(=O)Nc1nc2cc(-c3cnc(N4CCN(CCO)CC4)nc3)c(F)cc2s1` [Example 41, 1-ethyl-3-(6-fluoro-5-(2-(4-(2-hydroxyethyl)piperazin-1-yl)pyrimidin-5-yl)benzo[d]thiazol-2-yl)urea] was 2 to 16 µg/mL (≈ 4.49 to 35.9 µM). For `CCNC(=O)Nc1nc2cc(-c3cnc(N4CCNCC4)nc3)c(F)cc2s1.Cl` [Example 42, 1-ethyl-3-(6-fluoro-5-(2-(piperazin-1-yl)pyrimidin-5-yl)benzo[d]thiazol-2-yl)urea hydrochloride salt] the value was 2 to 16 µg/mL.
